Data reported in PubChem BioAssay (NCI).
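Briefly, cells in 96-well plates were exposed to five compound concentrations for 48 h, and endpoints were estimated by linear interpolation. GI50 marks 50% less growth. The concentration for full growth arrest is given as TGI.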

Legend:
Assay in all cases: NCI-60 cell line screen, 48 h
[1] = test system: OVCAR-5 ovarian
[2] = test system: T-47D breast
[3] = test system: DU-145 prostate
[4] = test system: KM12 colon
[5] = test system: SK-MEL-2 melanoma
[6] = test system: HL-60(TB) leukemia
[7] = test system: ACHN renal
[8] = test system: SK-OV-3 ovarian
[9] = test system: M14 melanoma
[10] = test system: HCC-2998 colon
[11] = test system: SF-295 CNS
[12] = test system: IGROV1 ovarian
[13] = test system: 786-0 renal
[14] = test system: SK-MEL-28 melanoma
[15] = test system: SF-539 CNS
[16] = test system: LOX IMVI melanoma
[17] = test system: UACC-62 melanoma
[18] = test system: COLO 205 colon
[19] = test system: UACC-257 melanoma
[20] = test system: CCRF-CEM leukemia
[21] = test system: HOP-62 NSCLC
[22] = test system: MOLT-4 leukemia
[23] = test system: PC-3 prostate
[24] = test system: A498 renal
[25] = test system: RPMI-8226 leukemia
[26] = test system: U251 CNS
[27] = test system: HT29 colon
[28] = test system: EKVX NSCLC
[29] = test system: HOP-92 NSCLC
[30] = test system: OVCAR-8 ovarian
[31] = test system: NCI-H23 lung
[32] = test system: MDA-MB-231 breast
[33] = test system: A549 NSCLC
[34] = test system: OVCAR-3 ovarian
[35] = test system: HCT-116 colon
[36] = test system: NCI-H226 lung
[37] = test system: HCT-15 colon
[38] = test system: MDA-MB-435
[39] = test system: SNB-19 CNS
[40] = test system: MALME-3M melanoma
[41] = test system: CAKI-1 renal
[42] = test system: SN12C renal
[43] = test system: SK-MEL-5 melanoma
[44] = test system: TK-10 renal

What does the source list for `COc1ccc(-c2ccc(-c3ccc(C(=N)N)cc3)s2)cc1Cl`?
GI50 [1]: 1.55 µM; TGI [1]: 2.88 µM; GI50 [2]: 1.85 µM; TGI [2]: 4.33 µM; GI50 [3]: 1.7 µM; TGI [3]: 3.06 µM; GI50 [4]: 1.75 µM; TGI [4]: 3.13 µM; GI50 [5]: 2.05 µM; TGI [5]: 4.2 µM; GI50 [6]: 1.91 µM; TGI [6]: 4.05 µM; GI50 [7]: 1.62 µM; TGI [7]: 2.97 µM; GI50 [8]: 1.98 µM; TGI [8]: 4.46 µM

`CCCc1cn2c(/C=N/N=C(N)N)c(-c3ccc([N+](=O)[O-])cc3)nc2s1` was tested. Which TGI [1] did it give?
The TGI was 3.14 µM.

And the TGI [9]?
The TGI was 3.18 µM.

What about the TGI [2] of the same compound?
Its TGI is 2.71 µM.

What about the TGI [10] of the same compound?
The TGI was 2.03 µM.

What about the TGI [11] of the same compound?
The TGI was 2.16 µM.

And the TGI [12]?
The TGI was 3.05 µM.

And the TGI [13]?
Its TGI is 1.97 µM.

And the TGI [14]?
The TGI was 4.66 µM.

What about the TGI [15] of the same compound?
The TGI was 9.84 µM.

And the TGI [16]?
Its TGI is 3.04 µM.

What about the TGI [17] of the same compound?
The TGI was 3.35 µM.

What about the TGI [18] of the same compound?
Its TGI is 1.19 µM.

What about the TGI [19] of the same compound?
The TGI was 3.03 µM.

And the TGI [20]?
Its TGI is 1.3 µM.

What about the TGI [21] of the same compound?
Its TGI is 3.16 µM.

And the TGI [22]?
The TGI was 0.441 µM.

And the TGI [23]?
The TGI was 7.01 µM.

And the TGI [24]?
The TGI was 10.6 µM.

And the TGI [5]?
Its TGI is 3.55 µM.

What about the TGI [25] of the same compound?
Its TGI is 2.76 µM.

And the TGI [26]?
The TGI was 1.39 µM.

What about the TGI [27] of the same compound?
The TGI was greater than 100 µM.

What about the TGI [28] of the same compound?
Its TGI is 3.62 µM.

And the TGI [29]?
The TGI was 74 µM.

And the TGI [30]?
The TGI was 3.21 µM.

And the TGI [31]?
The TGI was 2.82 µM.

And the TGI [32]?
The TGI was 3.51 µM.

And the TGI [33]?
The TGI was 2.91 µM.

And the TGI [34]?
Its TGI is 0.377 µM.

What about the TGI [35] of the same compound?
Its TGI is 1.6 µM.

And the TGI [36]?
Its TGI is 3.33 µM.

What about the TGI [37] of the same compound?
Its TGI is 2.3 µM.

What about the TGI [38] of the same compound?
The TGI was 3.1 µM.

And the TGI [6]?
The TGI was 2.52 µM.

What about the TGI [7] of the same compound?
Its TGI is 2.88 µM.

What about the TGI [39] of the same compound?
Its TGI is 2.9 µM.

What about the TGI [40] of the same compound?
Its TGI is 3.86 µM.

What about the TGI [8] of the same compound?
The TGI was 2.92 µM.

And the TGI [41]?
The TGI was 3.1 µM.

What about the TGI [42] of the same compound?
The TGI was 3.06 µM.

What about the TGI [43] of the same compound?
Its TGI is 54 µM.

What about the TGI [44] of the same compound?
Its TGI is 3.93 µM.
